Test results: patent publication US8609688B2, “Substituted imidazopyridinyl-aminopyridine compounds” (ArQule, Inc., priority 2011, dated 2013)

Experiments:
Phospho-Akt (S473) = experiment: Cell ELISA Assay, Phospho-Akt detection; assay type: cell-based; conditions: cells treated for 1 hour, cell line not stated
Procedure: Phospho-Akt detection analysis. Phospho-Akt (S473) was detected using cell ELISA. Briefly, cells were plated in a 96-well plate at 7,000-10,000 cells per well, cultured for 2-3 days in complete growth medium, and then treated with various drugs or combinations of drugs for 1 hour. The cells were fixed with ice-cold methanol, and washed with TBS supplemented with 1% H2O2. Phospho-Akt (S473) was probed with corresponding rabbit antibody as a primary antibody, and horseradish peroxidase conjugated goat anti-rabbit IgG. After treatment with SuperSignal® ELISA for 15 minutes, the detection was performed using a luminometer. Data were normalized to untreated controls and analyzed with Microsoft Excel.

[1] = target: T1, Full-length inactive AKT1 (Homo sapiens (Human), UniProt P31749); experiment: Thermal Shift Assay (protein-ligand binding); conditions: Kd at 25° C. calculated using constant ligand binding enthalpy −15 kcal/mol; 15 μM compound, ANS dye
Procedure: Binding analysis. Protein-ligand binding was identified with the thermal shift assay which is based on the ligand-induced stabilization of the protein tertiary structure. The thermal stability of the ligand-Akt1 complex was assessed by subjecting the complex to a set temperature gradient and by comparison of the meltion temperature of the Akt1-ligand complex with the melting temperature of the protein alone. Protein unfolding was monitored by the fluorescence readout of an environmentally sensitive fluorescent dye, 1-anilinonaphthalene-8-sulfonic acid (ANS). […] The PCR plate was placed into a RT-PCR instrument and a temperature gradient was performed, increasing from 27 to 80° C., at 1° C./30 sec heat rate with a dwell time of 20 sec. The change in ANS fluorescence was measured using the filter set of 475 nm/525 nm excitation/emission.

cells = experiment: Cell proliferation / viability GI50 (MTS assay or ATP quantitation assay); assay type: cell-based; conditions: 72 hours treatment; cell line and assay (MTS or ATP quantitation) not stated
Procedure: Cell proliferation analysis. Cell survival was determined by the MTS assay. Briefly, cells were plated in a 96-well plate at 2,000-10,000 cells per well, cultured for 24 hours in complete growth medium, and then treated with various drugs and drug combinations for 72 hours. MTS was added and incubated for 4 hour, followed by assessment of cell viability using the microplate reader at 570 nm. Data were normalized to untreated controls and analyzed with Microsoft Excel.
Cell viability analysis. Cell viability was determined by the ATP quantitation assay. Briefly, cells were plated in a 96-well plate at 2,000-10,000 cells per well, cultured for 24 hours in complete growth medium, and then treated with various drugs or combination of drugs for 72 hours. CellTiter-Glo® reagent was added and incubated at room temperature for 10 minutes, followed by assessment of cell viability using a luminometer. Data were normalized to untreated controls and analyzed with Microsoft Excel.

[2] = target: T1, Full-length inactive AKT1; experiment: Inactive Akt Alpha Screen Assay; conditions: 8 nM inactive Akt1 activated by PDK1 and MAPKAPK2, lipid vesicles, 50 μM ATP, biotinylated crosstide; read-out: Akt1 biochemical assay IC50 AlphaScreen crosstide
Procedure: AKT1 activity was assayed using the GSK3-derived biotinylated peptide substrate, crosstide (biotin-[…]), and AlphaScreen™ (Amplified Luminescent Proximity Homogeneous Assay) technology. AKT1 activation was achieved by the addition of the activating kinases PDK1 and MAPKAPK2, lipid vesicles, and ATP. The extent of peptide phosphorylation was determined using a phospho-AKT substrate antibody and acceptor beads conjugated to Protein A and donor beads conjugated to streptavidin that bind to the biotin on the peptide. Excitation of the donor beads converted ambient oxygen to excited singlet oxygen which, when in close proximity to acceptor beads, reacted with acceptor beads resulting in signal amplification.
After a 20 minute pre-incubation at room temperature, the kinase reaction was initiated by the addition of 5 μL of an activation mixture diluted in assay buffer containing biotinylated crosstide, PDK1, MAPKAPK2, DOPS/DOPC, PtdIns(3,4,5)P3, and ATP for final concentrations of 60 nM biotinylated crosstide, 0.1 nM PDK1, 0.7 nM MK2, 5.5 μM DOPS, 5.5 μM DOPC, 0.5 μM PtdIns(3,4,5)P3, and 50 μM ATP. The plates were incubated for 30 minutes at room temperature, and then stopped in the dark by the addition of 10 μL stop/detection mixture prepared in assay buffer containing EDTA, AlphaScreen™ Streptavidin Donor and Protein A Acceptor beads, and phospho-AKT substrate antibody for final concentrations of 10 mM EDTA, 500 ng/well of both AlphaScreen™ Streptavidin Donor beads and Protein A Acceptor beads, and phospho-AKT substrate antibody at a final dilution of 1:350. Assay plates were incubated for 90 minutes at room temperature in the dark, and the plates were read on a Perkin Elmer Envision Multilabel plate reader (excitation wavelength: 640 nm, emission wavelength: 570 nm). […]

T1 sequence (P31749 whole entry): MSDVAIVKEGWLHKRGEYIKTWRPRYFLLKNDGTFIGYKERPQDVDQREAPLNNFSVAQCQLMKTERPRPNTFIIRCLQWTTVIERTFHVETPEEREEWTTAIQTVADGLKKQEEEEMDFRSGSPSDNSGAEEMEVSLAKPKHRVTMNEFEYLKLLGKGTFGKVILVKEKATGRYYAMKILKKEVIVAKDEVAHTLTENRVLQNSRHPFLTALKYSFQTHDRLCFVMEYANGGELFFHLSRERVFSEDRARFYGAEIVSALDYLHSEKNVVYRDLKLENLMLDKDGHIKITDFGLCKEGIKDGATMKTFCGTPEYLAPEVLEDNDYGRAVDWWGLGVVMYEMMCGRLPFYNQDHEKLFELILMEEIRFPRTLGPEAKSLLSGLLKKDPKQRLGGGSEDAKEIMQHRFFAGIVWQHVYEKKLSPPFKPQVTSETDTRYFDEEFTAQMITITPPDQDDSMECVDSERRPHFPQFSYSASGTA

Structure (SMILES)	IC50 (Phospho-Akt (S473)) [µM]	Kd [1] [µM]	GI50 (cells) [µM]	IC50 [2] [µM]
Nc1ncccc1-c1nc2ccc(N3CCOCC3)nc2n1-c1ccc(C2(N)CCC2)cc1 [Cmpd 1, 3-(3-(4-(1-aminocyclobutyl)phenyl)-5-morpholino-3H-imidazo[4,5-b]pyridin-2-yl)pyridin-2-amine]	0.235	–	–	–
Nc1ncccc1-c1nc2ccc(-c3cccc(NC(=O)C4CC4)c3)nc2n1-c1ccc(C2(N)CCC2)cc1 [Cmpd 3, N-(3-(3-(4-(1-aminocyclobutyl)phenyl)-2-(2-aminopyridin-3-yl)-3H-imidazo[4,5-b]pyridin-5-yl)phenyl)cyclopropane-carboxamide]	0.029	0.007	444	0.00309
CC(C)(C)C(=O)Nc1cccc(-c2ccc3nc(-c4cccnc4N)n(-c4ccc(C5(N)CCC5)cc4)c3n2)c1 [Cmpd 4, N-(3-(3-(4-(1-aminocyclobutyl)phenyl)-2-(2-aminopyridin-3-yl)-3H-imidazo[4,5-b]pyridin-5-yl)phenyl)pivalamide]	0.017	0.0004	265	0.0017
CC(=O)OC(C)(C)C(=O)Nc1cccc(-c2ccc3nc(-c4cccnc4N)n(-c4ccc(C5(N)CCC5)cc4)c3n2)c1 [Cmpd 5, 1-((3-(3-(4-(1-aminocyclobutyl)phenyl)-2-(2-aminopyridin-3-yl)-3H-imidazo[4,5-b]pyridin-5-yl)phenyl)amino)-2-methyl-1-oxopropan-2-yl acetate]	–	0.0007	–	0.00446
CC(C)(O)C(=O)Nc1cccc(-c2ccc3nc(-c4cccnc4N)n(-c4ccc(C5(N)CCC5)cc4)c3n2)c1 [Cmpd 6, N-(3-(3-(4-(1-aminocyclobutyl)phenyl)-2-(2-aminopyridin-3-yl)-3H-imidazo[4,5-b]pyridin-5-yl)phenyl)-2-hydroxy-2-methylpropanamide]	–	0.0014	–	0.00163
C[C@H](O)CNC(=O)c1cccc(-c2ccc3nc(-c4cccnc4N)n(-c4ccc(C5(N)CCC5)cc4)c3n2)c1 [Cmpd 7, (S)-3-(3-(4-(1-aminocyclobutyl)phenyl)-2-(2-aminopyridin-3-yl)-3H-imidazo[4,5-b]pyridin-5-yl)-N-(2-hydroxypropyl)benzamide]	0.012	–	836	–
C[C@@H](O)CNC(=O)c1cccc(-c2ccc3nc(-c4cccnc4N)n(-c4ccc(C5(N)CCC5)cc4)c3n2)c1 [Cmpd 8, (R)-3-(3-(4-(1-aminocyclobutyl)phenyl)-2-(2-aminopyridin-3-yl)-3H-imidazo[4,5-b]pyridin-5-yl)-N-(2-hydroxypropyl)benzamide]	0.008	–	1350	–
CN(C)C(=O)C1CCN(c2cccc(-c3ccc4nc(-c5cccnc5N)n(-c5ccc(C6(N)CCC6)cc5)c4n3)c2)CC1 [Cmpd 9, 1-(3-(3-(4-(1-aminocyclobutyl)phenyl)-2-(2-aminopyridin-3-yl)-3H-imidazo[4,5-b]pyridin-5-yl)phenyl)-N,N-dimethylpiperidine-4-carboxamide]	0.0021	0.0002	–	0.00251
CCN(CC)C(=O)C1CCN(c2cccc(-c3ccc4nc(-c5cccnc5N)n(-c5ccc(C6(N)CCC6)cc5)c4n3)c2)CC1 [Cmpd 10, 1-(3-(3-(4-(1-aminocyclobutyl)phenyl)-2-(2-aminopyridin-3-yl)-3H-imidazo[4,5-b]pyridin-5-yl)phenyl)-N,N-diethylpiperidine-4-carboxamide]	0.003	0.0002	–	0.00415
Nc1ncccc1-c1nc2ccc(-c3cccc(N4CCC(C(=O)N5CCOCC5)CC4)c3)nc2n1-c1ccc(C2(N)CCC2)cc1 [Cmpd 11, (1-(3-(3-(4-(1-aminocyclobutyl)phenyl)-2-(2-aminopyridin-3-yl)-3H-imidazo[4,5-b]pyridin-5-yl)phenyl)piperidin-4-yl)(morpholino)methanone]	0.0017	0.0002	–	0.00336
CCC(=O)N1CCN(c2cccc(-c3ccc4nc(-c5cccnc5N)n(-c5ccc(C6(N)CCC6)cc5)c4n3)c2)CC1 [Cmpd 13, 1-(4-(3-(3-(4-(1-aminocyclobutyl)phenyl)-2-(2-aminopyridin-3-yl)-3H-imidazo[4,5-b]pyridin-5-yl)phenyl)piperazin-1-yl)propan-1-one]	0.009	0.0014	335	0.00215
CC(C)C(=O)N1CCN(c2cccc(-c3ccc4nc(-c5cccnc5N)n(-c5ccc(C6(N)CCC6)cc5)c4n3)c2)CC1 [Cmpd 15, 1-(4-(3-(3-(4-(1-aminocyclobutyl)phenyl)-2-(2-aminopyridin-3-yl)-3H-imidazo[4,5-b]pyridin-5-yl)phenyl)piperazin-1-yl)-2-methylpropan-1-one]	0.004	0.0011	–	–
CC(C)(C)C(=O)N1CCN(c2cccc(-c3ccc4nc(-c5cccnc5N)n(-c5ccc(C6(N)CCC6)cc5)c4n3)c2)CC1 [Cmpd 16, 1-(4-(3-(3-(4-(1-aminocyclobutyl)phenyl)-2-(2-aminopyridin-3-yl)-3H-imidazo[4,5-b]pyridin-5-yl)phenyl)piperazin-1-yl)-2,2-dimethylpropan-1-one]	–	0.0017	–	0.00342
C[C@@H]1CN(c2cccc(-c3ccc4nc(-c5cccnc5N)n(-c5ccc(C6(N)CCC6)cc5)c4n3)c2)C[C@H](C)O1 [Cmpd 17, 3-(3-(4-(1-aminocyclobutyl)phenyl)-5-(3-((2S,6R)-2,6-dimethylmorpholino)phenyl)-3H-imidazo[4,5-b]pyridin-2-yl)pyridin-2-amine]	–	0.0031	–	0.00436
Nc1ncccc1-c1nc2ccc(-c3cccc(N4CCS(=O)(=O)CC4)c3)nc2n1-c1ccc(C2(N)CCC2)cc1 [Cmpd 18, 4-(3-(3-(4-(1-aminocyclobutyl)phenyl)-2-(2-aminopyridin-3-yl)-3H-imidazo[4,5-b]pyridin-5-yl)phenyl)thiomorpholine 1,1-dioxide]	–	0.0008	–	0.00179
Nc1ncccc1-c1nc2ccc(Nc3ccccc3)nc2n1-c1ccc(C2(N)CCC2)cc1 [Cmpd 19, 3-(4-(1-aminocyclobutyl)phenyl)-2-(2-aminopyridin-3-yl)-N-phenyl-3H-imidazo[4,5-b]pyridin-5-amine]	0.06	–	1420	0.00377
Nc1ncccc1-c1nc2ccc(Nc3ccc(N4CCOCC4)cc3)nc2n1-c1ccc(C2(N)CCC2)cc1 [Cmpd 20, 3-(4-(1-aminocyclobutyl)phenyl)-2-(2-aminopyridin-3-yl)-N-(4-morpholinophenyl)-3H-imidazo[4,5-b]pyridin-5-amine]	0.414	0.0573	–	0.00872
Nc1ncccc1-c1nc2ccc(Sc3ccccc3)nc2n1-c1ccc(C2(N)CCC2)cc1 [Cmpd 21, 3-(3-(4-(1-aminocyclobutyl)phenyl)-5-(phenylthio)-3H-imidazo[4,5-b]pyridin-2-yl)pyridin-2-amine]	0.605	0.11	–	–
Nc1ncccc1-c1nc2ccc(Oc3ccccc3)nc2n1-c1ccc(C2(N)CCC2)cc1 [Cmpd 22, 3-(3-(4-(1-aminocyclobutyl)phenyl)-5-phenoxy-3H-imidazo[4,5-b]pyridin-2-yl)pyridin-2-amine]	–	0.0831	–	–
